Here are results for one compound from ChEMBL document CHEMBL4507266, “Data for DCP probe BAY-784” (2021).

In assay [1] the target is Sodium-dependent serotonin transporter (Homo sapiens) (UniProt P31645). To be noted: Compound concentration 10.0 uM.
The target in assay [2] is Receptor tyrosine-protein kinase erbB-2 (Homo sapiens) (UniProt P04626). Put plainly: Inhibition of Protein Tyrosine Kinase, ERBB2 (HER2) at 10 µM in the Eurofins-Panlabs enzyme assay (Eurofins_assay_174020). Set-up: substrate with concentration. Conditions: Compound concentration 10.0 uM; call rule not given here.
Sequence of Receptor tyrosine-protein kinase erbB-2 (Homo sapiens) (P04626 whole entry): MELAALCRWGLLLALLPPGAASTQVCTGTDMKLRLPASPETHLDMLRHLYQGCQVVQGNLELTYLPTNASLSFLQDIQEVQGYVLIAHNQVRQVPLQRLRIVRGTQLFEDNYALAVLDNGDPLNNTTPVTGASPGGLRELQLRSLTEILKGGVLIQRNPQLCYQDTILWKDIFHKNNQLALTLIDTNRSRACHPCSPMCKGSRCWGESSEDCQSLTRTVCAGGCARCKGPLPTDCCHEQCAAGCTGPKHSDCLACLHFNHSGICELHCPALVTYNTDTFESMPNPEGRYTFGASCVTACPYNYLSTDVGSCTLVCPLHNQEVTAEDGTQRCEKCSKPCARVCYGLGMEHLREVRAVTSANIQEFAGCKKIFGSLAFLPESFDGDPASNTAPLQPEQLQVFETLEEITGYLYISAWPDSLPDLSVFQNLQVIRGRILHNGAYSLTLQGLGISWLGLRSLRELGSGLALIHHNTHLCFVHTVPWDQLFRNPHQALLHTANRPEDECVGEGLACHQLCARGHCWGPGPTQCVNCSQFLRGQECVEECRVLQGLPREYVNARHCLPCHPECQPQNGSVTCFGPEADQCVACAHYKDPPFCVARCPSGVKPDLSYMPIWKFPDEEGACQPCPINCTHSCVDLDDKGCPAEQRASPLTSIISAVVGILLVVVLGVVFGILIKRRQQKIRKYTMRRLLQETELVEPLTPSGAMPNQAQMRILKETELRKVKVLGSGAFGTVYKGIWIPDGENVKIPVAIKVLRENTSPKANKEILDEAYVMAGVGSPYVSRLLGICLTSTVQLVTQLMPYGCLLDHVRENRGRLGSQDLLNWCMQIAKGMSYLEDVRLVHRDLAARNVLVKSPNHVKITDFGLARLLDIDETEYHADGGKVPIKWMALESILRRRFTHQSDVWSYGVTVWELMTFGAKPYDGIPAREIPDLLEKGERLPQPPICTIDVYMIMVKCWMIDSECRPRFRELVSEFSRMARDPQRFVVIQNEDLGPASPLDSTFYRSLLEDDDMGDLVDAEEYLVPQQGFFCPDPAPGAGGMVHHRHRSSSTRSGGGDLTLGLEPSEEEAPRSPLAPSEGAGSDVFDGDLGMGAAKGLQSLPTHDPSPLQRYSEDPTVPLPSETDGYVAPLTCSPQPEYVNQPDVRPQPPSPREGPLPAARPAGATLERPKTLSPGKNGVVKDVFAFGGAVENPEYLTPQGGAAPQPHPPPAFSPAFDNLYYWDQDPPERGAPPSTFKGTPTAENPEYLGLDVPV
Assay [3] has as its target D(2) dopamine receptor (Homo sapiens) (UniProt P14416). To be noted: Compound concentration 10.0 uM.
Assay [4] concerns the target Epidermal growth factor receptor (Homo sapiens) (UniProt P00533). Description: Inhibition of Protein Tyrosine Kinase, EGF Receptor at 10 µM in the Eurofins-Panlabs enzyme assay (Eurofins_assay_170020). Set-up: substrate with concentration. To be noted: Compound concentration […].
Assay [5] deals with Mitogen-activated protein kinase 3 (Homo sapiens) (UniProt P27361). Description: Inhibition of Protein Serine/Threonine Kinase, MAPK3 (ERK1) at 10 µM in the Eurofins-Panlabs enzyme assay (Eurofins_assay_171000). To be noted: Compound concentration 10.0 uM.
The target of assay [6] is Acetylcholinesterase (Homo sapiens) (UniProt P22303). Conditions: Compound concentration 10.0 uM.
The target in assay [7] is Beta-3 adrenergic receptor (Homo sapiens) (UniProt P13945). To be noted: Compound concentration 10.0 uM.
In assay [8] the target is T1, Muscarinic acetylcholine receptor M5 (Homo sapiens) (UniProt P08912).
T1 sequence (whole entry): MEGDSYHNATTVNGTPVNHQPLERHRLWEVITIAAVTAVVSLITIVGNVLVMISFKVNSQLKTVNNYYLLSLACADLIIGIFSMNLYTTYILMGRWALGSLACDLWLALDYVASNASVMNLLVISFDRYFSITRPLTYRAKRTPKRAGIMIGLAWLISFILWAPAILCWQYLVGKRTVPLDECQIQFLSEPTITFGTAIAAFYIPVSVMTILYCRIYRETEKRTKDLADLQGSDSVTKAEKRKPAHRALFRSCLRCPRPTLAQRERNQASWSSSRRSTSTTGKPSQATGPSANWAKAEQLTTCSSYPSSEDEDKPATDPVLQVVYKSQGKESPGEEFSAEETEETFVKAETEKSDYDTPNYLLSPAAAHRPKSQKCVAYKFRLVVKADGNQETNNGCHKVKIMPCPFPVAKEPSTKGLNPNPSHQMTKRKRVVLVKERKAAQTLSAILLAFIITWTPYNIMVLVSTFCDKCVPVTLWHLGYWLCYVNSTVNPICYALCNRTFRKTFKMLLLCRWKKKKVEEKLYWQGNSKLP
Description: Inhibition of Muscarinic M5 at 10 µM in the Eurofins-Panlabs radioligand binding assay (Eurofins_assay_253010). Details: ligand concentration 0.8 nM. To be noted: Compound concentration 10.0 uM.

For assay [9], the target named is Carbonic anhydrase 2 (Homo sapiens) (UniProt P00918). Description: Inhibition of Carbonic Anhydrase II at compound concentration of 10.0 uM in the Eurofins-Panlabs enzyme assay (Eurofins_assay_112020). To be noted: Compound concentration 10.0 uM. Details: substrate with concentration.
Assay [10] addresses Neuropeptide Y receptor type 1 (Homo sapiens) (UniProt P25929). Put plainly: Inhibition of Neuropeptide Y Y1 at 10 µM in the Eurofins-Panlabs radioligand binding assay (Eurofins_assay_257010). To be noted: Compound concentration 10.0 uM.
Assay [11] deals with Melanocortin receptor 3 (Homo sapiens) (UniProt P41968). Description: Inhibition of Melanocortin MC3 at 10 µM in the Eurofins-Panlabs radioligand binding assay (Eurofins_assay_251300). Details: ligand concentration 0.035 nM. Conditions: Compound concentration 10.0 uM.
Sequence of Melanocortin receptor 3 (Homo sapiens) (P41968 whole entry): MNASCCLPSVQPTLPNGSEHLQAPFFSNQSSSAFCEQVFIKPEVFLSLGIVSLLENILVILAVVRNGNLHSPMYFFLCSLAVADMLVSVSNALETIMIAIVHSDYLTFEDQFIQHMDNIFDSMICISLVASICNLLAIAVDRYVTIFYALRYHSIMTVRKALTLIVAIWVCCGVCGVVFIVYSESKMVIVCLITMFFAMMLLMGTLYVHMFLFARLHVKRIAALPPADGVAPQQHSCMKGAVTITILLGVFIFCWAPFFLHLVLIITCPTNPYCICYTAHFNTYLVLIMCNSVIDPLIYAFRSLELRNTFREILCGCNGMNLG
The species entered for another assay is Rattus norvegicus. Put plainly: Testosterone Eurofins-Panlabs radioligand binding assay. Details: ligand concentration 1.5 nM. To be noted: Compound concentration 10.0 uM.
Assay [12] has as its target Epidermal growth factor receptor (Homo sapiens) (UniProt P00533). Description: Protein Tyrosine Kinase, EGF Receptor Eurofins-Panlabs enzyme assay. Set-up: substrate with concentration. Conditions: Compound concentration 10.0 uM.
For assay [13], the target named is 5-hydroxytryptamine receptor 5A (Homo sapiens) (UniProt P47898). To be noted: Compound concentration 10.0 uM.
Sequence of 5-hydroxytryptamine receptor 5A (Homo sapiens) (P47898 whole entry): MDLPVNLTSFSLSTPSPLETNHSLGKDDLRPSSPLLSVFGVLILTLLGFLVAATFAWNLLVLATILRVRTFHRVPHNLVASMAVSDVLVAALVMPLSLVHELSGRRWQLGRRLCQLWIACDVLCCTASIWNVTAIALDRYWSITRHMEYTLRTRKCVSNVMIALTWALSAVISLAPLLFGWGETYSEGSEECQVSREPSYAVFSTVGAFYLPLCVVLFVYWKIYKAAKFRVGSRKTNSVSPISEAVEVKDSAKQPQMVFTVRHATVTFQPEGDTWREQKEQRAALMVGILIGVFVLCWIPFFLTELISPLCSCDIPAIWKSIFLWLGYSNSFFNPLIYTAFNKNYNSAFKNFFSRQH
The target of assay [14] is Mu-type opioid receptor (Homo sapiens) (UniProt P35372). Conditions: Compound concentration 10.0 uM.
Assay [15] deals with Protein phosphatase 3 catalytic subunit alpha (Homo sapiens) (UniProt Q08209). Description: Inhibition of Protein Serine/threonine Phosphatase, PPP3CA (Calcineurin, PP2B) […] in the Eurofins-Panlabs enzyme assay (Eurofins_assay_188020). Conditions: Compound concentration 10.0 uM. Details: substrate with concentration.
The target in assay [16] is Platelet-activating factor receptor (Homo sapiens) (UniProt P25105). Description: Inhibition of Platelet Activating Factor (PAF) at 10 µM in the Eurofins-Panlabs radioligand binding assay (Eurofins_assay_265010). To be noted: Compound concentration 10.0 uM.
Sequence of Platelet-activating factor receptor (Homo sapiens) (P25105 whole entry): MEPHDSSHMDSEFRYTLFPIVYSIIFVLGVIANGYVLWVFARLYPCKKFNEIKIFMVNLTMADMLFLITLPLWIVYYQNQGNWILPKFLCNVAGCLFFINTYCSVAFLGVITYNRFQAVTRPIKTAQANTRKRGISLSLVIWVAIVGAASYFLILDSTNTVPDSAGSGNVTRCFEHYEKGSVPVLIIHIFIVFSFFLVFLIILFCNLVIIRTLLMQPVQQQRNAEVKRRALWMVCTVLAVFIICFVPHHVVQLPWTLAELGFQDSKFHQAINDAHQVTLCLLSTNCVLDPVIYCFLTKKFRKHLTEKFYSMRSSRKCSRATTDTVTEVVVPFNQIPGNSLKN
For assay [17], the target named is Cysteinyl leukotriene receptor 1 (Homo sapiens) (UniProt Q9Y271). Description: Inhibition of Leukotriene, Cysteinyl CysLT1 at 10 µM in the Eurofins-Panlabs radioligand binding assay (Eurofins_assay_250460). Details: ligand concentration 0.3 nM, non-specific ligand with concentration 0.3 µM Leukotriene D4, incubation time 30 min, incubation temperature 25 °C. To be noted: Compound concentration 10.0 uM.
Sequence of Cysteinyl leukotriene receptor 1 (Homo sapiens) (Q9Y271 whole entry): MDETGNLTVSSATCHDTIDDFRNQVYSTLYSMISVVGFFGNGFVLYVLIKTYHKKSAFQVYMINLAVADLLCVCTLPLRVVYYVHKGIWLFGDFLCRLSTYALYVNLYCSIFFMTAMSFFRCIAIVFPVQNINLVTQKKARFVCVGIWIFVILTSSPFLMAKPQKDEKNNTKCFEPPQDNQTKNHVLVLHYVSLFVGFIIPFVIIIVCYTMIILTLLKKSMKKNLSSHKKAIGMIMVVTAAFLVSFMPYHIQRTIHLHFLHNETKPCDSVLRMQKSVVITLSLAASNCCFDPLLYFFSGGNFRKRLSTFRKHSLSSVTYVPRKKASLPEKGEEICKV

The target of assay [18] is Melanocortin receptor 5 (Homo sapiens) (UniProt P33032). Description: Inhibition of Melanocortin MC5 at 10 µM in the Eurofins-Panlabs radioligand binding assay (Eurofins_assay_251400). To be noted: Compound concentration 10.0 uM. Set-up: ligand concentration 0.035 nM.
Sequence of Melanocortin receptor 5 (Homo sapiens) (P33032 whole entry): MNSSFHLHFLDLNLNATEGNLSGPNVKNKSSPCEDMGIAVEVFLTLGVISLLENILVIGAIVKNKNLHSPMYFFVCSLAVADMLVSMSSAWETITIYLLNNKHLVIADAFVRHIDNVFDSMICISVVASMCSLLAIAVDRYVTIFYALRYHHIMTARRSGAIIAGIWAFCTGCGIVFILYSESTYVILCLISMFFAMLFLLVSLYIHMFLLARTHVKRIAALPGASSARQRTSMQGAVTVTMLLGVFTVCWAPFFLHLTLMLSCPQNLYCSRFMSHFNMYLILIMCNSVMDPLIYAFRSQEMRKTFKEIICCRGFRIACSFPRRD
The target in the next assay is Cannabinoid receptor 1 (Homo sapiens, UniProt P21554).
Sequence of Cannabinoid receptor 1 (P21554 whole entry): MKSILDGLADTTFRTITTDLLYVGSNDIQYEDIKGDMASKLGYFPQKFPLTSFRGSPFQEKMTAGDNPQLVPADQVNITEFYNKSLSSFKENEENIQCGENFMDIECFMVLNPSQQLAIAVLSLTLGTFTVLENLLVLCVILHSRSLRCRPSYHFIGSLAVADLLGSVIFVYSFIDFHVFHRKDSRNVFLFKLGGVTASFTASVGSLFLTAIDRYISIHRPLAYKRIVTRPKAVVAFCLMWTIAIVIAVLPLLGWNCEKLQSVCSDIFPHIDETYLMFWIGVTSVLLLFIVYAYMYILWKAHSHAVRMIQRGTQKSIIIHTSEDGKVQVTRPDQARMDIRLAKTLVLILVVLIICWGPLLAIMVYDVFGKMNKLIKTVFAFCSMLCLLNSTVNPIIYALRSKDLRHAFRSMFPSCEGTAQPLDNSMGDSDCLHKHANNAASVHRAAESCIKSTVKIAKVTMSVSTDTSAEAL
A short description of assay [19]: Inhibition of Atrial Natriuretic Factor (ANF) at 10 µM in the Eurofins-Panlabs radioligand binding assay (Eurofins_assay_211000). Conditions: Cavia porcellus; Compound concentration 10 uM; Assay protocol publication PMID: 2408776; Detection method Radioligand Binding; Incubation temperature 4 °C; Incubation time 60 min; Ligand Bmax 0.013 pM/ mg protein; Ligand Kd 0.14 nM; Ligand [125I] ANF (rat); Ligand concentration 0.016 nM; Ligand specific binding 78 %; Non-specific ligand with concentration 0.1 µM ANF (rat); Reference compound ANF (rat); Source of ….

Assay [20] concerns the target Mitogen-activated protein kinase 14 (Homo sapiens) (UniProt Q16539). Description: Inhibition of Protein Serine/Threonine Kinase, MAPK14 (p38α) at 10 µM in the Eurofins-Panlabs enzyme assay (Eurofins_assay_176610). Details: substrate with concentration. Conditions: Compound concentration 10.0 uM.
Assay [21] addresses T2, 5-hydroxytryptamine receptor 3A (Homo sapiens) (UniProt P46098).
T2 sequence (whole entry): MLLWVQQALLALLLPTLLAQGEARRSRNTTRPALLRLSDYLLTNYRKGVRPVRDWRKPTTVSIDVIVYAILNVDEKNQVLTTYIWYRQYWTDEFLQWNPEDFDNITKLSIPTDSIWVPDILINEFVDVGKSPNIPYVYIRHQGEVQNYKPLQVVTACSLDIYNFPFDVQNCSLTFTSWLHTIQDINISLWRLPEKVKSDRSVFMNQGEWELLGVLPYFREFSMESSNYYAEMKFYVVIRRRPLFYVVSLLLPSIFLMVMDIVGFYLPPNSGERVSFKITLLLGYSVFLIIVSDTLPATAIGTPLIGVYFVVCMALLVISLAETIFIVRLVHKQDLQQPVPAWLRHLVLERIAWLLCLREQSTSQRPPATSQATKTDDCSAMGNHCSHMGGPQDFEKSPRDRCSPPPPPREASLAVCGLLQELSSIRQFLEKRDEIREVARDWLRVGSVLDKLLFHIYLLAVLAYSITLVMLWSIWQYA
Description: Inhibition of Serotonin (5-Hydroxytryptamine) 5-HT3 at 10 µM in the Eurofins-Panlabs radioligand binding assay (Eurofins_assay_271910). Set-up: ligand concentration 0.69 nM. To be noted: Compound concentration 10.0 uM.

Sequence of Epidermal growth factor receptor (Homo sapiens) (P00533 whole entry): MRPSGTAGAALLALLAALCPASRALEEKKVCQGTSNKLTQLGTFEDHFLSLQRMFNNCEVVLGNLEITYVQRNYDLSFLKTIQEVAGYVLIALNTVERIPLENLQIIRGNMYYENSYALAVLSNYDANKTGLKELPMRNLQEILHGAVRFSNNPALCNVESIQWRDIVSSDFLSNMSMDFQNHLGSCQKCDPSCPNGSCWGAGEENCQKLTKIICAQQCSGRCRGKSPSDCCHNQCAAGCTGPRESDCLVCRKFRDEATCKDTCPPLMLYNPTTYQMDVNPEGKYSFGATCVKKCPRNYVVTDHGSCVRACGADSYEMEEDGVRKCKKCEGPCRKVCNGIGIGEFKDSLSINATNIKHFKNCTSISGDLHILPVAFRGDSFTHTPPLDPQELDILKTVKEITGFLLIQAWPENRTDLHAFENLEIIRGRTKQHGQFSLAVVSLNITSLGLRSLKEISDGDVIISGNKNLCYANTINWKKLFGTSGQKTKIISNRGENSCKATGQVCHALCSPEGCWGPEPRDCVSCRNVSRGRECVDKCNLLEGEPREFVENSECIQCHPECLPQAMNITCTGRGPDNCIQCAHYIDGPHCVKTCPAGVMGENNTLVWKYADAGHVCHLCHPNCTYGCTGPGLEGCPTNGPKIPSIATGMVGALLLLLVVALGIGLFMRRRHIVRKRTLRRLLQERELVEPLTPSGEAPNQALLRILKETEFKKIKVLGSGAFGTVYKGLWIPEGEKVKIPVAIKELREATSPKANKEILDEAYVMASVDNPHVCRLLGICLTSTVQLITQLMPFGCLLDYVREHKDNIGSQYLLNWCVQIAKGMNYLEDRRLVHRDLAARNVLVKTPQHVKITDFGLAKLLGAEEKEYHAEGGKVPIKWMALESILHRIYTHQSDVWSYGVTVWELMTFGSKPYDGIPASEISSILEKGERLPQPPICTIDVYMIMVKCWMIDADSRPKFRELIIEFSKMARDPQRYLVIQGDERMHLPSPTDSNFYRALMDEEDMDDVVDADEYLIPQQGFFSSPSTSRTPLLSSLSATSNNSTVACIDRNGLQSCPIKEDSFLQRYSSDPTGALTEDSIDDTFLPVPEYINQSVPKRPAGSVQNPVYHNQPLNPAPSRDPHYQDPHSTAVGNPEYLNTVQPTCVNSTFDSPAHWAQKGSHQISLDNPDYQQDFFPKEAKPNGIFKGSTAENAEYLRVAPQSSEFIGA
Sequence of Mitogen-activated protein kinase 14 (Homo sapiens) (Q16539 whole entry): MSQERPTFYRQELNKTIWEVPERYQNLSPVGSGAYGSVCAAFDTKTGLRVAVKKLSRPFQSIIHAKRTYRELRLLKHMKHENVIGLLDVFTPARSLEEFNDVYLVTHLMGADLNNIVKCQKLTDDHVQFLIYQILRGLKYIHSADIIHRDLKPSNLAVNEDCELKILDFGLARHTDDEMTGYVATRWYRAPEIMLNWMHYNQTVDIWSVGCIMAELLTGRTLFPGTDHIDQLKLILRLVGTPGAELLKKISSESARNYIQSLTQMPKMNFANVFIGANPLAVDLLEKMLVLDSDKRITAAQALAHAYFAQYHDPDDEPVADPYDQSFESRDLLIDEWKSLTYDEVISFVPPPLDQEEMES

On to `O=C(NCc1ncc(C(F)(F)F)cc1Cl)c1ccc2c(c1)C1(CCS(=O)(=O)CC1)[C@H](C1CC1)N2S(=O)(=O)c1ccc(F)cc1` [BAY-784], for which the inhibition is 10% in assay [1]; 6% in assay [2]; 4% in assay [3]; -8% in assay [4]; 87% in assay [5]; 56% in [6]. Further, the inhibition is 0% in [7]; 0% in assay [8]; -5% in assay [9]; 17% in [10]; -7% in [11]; 16% in the assay filed under Rattus norvegicus. Also, the inhibition is -3% in [12]; -8.25% in [13]; 16% in [14]; 16% in assay [15]; 6% in assay [16]; 4% in [17]. In addition, the inhibition in assay [18] was 27%; on Cannabinoid receptor 1 (Compound concentration 3.0 uM), 52%; on Cannabinoid receptor 1 (Compound concentration 10.0 uM), 73%; in assay [20] it was 50%; in assay [21], 19%. Also, the inhibition at 10 µM in assay [19] is recorded as 2% (not active).
